PMC4428032 (Bioconjugate Chemistry, 2015)

Columns and labels:
[1] = cited from earlier work
[2] = T1 relaxivity measurements at 0.5 T; assay type: physicochemical; conditions: 20 MHz, 25 °C

SMILES | thermodynamic stability constant log K [1] | T1 relaxivity [2] [mM^–1 s^–1]
O=C([O-])CN1CCN(CC(=O)[O-])CCN(CC(=O)[O-])CC1.[Ga+3] [Ga-NOTA] | 31.0 | 
O=C([O-])CN1CCN(CC(=O)[O-])CCN(CC(=O)O)CCN(CC(=O)[O-])CC1.[Gd+3] [Gd-DOTA] | 24.7 | 
O=C([O-])CN1CCN(CC(=O)[O-])CCN(CC(=O)[O-])CC1.[Gd+3] [Gd-NOTA] | 14.3 | 
CNC[C@H](O)[C@@H](O)[C@H](O)[C@H](O)CO.CNC[C@H](O)[C@@H](O)[C@H](O)[C@H](O)CO.O=C([O-])CN(CCN(CC(=O)[O-])CC(=O)O)CCN(CC(=O)[O-])CC(=O)O.[Gd+3] [Magnevist] |  | 4.1
